The compounds below were run against T1, CDK9/CyclinT1 (Homo sapiens, UniProt P50750) (assay: CDK9/T1 ADPGlo Activity (ADP Glo Kinase assay, inhibitory activity)). Settings: CDK9/CyclinT1 f.c. 6 nM; PDKtide 40 microM; ATP 10 microM; 10 min preincubation, 120 min at RT; 12 concentrations, 1:3 dilution from 5 microM.
T1 construct: purchased ProQinase/Reaction Biology, USA 0371-0345-1
Assay type: biochemical
Protocol: ASSAY PROTOCOL for Determination of Inhibitory Activity
The testing compound was evaluated in 12 concentrations in a 1:3 dilution series, starting from 5microM as the highest concentration.
In a white 384 microplate (Greiner bio-one, Austria #784904,) with 2 microL of 3-fold concentrated CDK9/CyclinT1 (ProQinase/Reaction Biology, USA #0371-0345-1, LOT.: 012), final concentration (f.c.) 6 nM, in 1× kinase buffer, 2 microL of compound (3× fold concentrated in f.c. 1.66% DMSO/H2O) was added and incubated at Room Temperature (RT) for 10 min. Then 2 microL of Substrate/ATP-Mix (3× PDKtide f.c. 40 microM, SignalChem Biotech, Canada via Biozol, Eching, Germany #P10-58, LOT.: L2230-7 and 3× UltraPure ATP f.c. 10 microM (ADP Glo Kinase assay, Promega GmbH, Germany #V9102)) were added, mixed and incubated for 120 min at RT.
After incubation time, 5 microL of ADP Glo reagent (ready to use, ADP Glo Kinase assay, Promega GmbH, Germany #V9102) were added, mixed and incubated for 40 min at RT.
In the last step, 10 microL of ADP Glo Detection reagent (ready to use, ADP Glo Kinase assay, Promega GmbH, Germany #V9102) were added, mixed and incubated for 30 min at RT.
GloMax Discover GM3000 Reader (Promega GmbH, Germany 9700000249) was used for the readout.
The inhibitor concentration was plotted against the luminescence to determine the IC50 using XLFit 5.5 (IDBS, Guildford) to fit to a sigmoidal dose response curve with a variable slope.

T1 sequence (P50750 whole entry): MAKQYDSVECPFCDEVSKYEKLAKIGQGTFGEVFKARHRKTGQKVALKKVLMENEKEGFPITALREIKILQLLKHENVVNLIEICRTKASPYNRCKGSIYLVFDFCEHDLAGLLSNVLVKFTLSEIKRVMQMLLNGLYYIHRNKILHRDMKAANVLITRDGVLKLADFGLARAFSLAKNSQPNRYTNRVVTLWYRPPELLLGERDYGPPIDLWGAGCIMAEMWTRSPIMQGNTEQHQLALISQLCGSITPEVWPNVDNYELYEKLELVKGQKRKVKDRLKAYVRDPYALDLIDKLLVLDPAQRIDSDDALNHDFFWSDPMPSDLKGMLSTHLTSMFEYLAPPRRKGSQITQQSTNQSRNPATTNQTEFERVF
T1 sequence (O60563 whole entry partner): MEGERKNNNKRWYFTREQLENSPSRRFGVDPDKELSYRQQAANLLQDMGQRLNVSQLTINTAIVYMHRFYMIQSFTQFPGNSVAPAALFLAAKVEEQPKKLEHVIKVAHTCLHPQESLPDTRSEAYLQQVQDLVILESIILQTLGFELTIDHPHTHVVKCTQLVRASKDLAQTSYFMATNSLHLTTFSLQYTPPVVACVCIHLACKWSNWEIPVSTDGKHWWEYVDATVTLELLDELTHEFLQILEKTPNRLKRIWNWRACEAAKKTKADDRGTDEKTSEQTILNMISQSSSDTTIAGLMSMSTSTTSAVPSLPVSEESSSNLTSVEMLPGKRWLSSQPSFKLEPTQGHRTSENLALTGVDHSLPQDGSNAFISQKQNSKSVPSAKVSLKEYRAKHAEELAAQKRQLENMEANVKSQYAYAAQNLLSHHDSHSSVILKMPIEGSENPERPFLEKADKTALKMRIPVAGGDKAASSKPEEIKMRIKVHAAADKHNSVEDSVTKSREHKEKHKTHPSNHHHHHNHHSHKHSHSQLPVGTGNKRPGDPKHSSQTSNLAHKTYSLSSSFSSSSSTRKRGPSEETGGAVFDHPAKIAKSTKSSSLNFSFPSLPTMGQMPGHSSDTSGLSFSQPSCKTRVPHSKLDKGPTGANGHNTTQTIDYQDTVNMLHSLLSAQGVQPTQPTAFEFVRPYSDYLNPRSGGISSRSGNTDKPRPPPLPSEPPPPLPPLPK

| Structure (SMILES) | IC50 [nM] |
| --- | --- |
| CC1CN(S(C)(=O)=O)CCC1Nc1cc(-c2c(F)cccc2F)nn2c(Cl)cnc12 (racemic) [Example #14, 3-chloro-6-(2,6-difluorophenyl)-N-(3-methyl-1-(methylsulfonyl)piperidin-4-yl)imidazo[1,2-b]pyridazin-8-amine] | < 200 |
| CC1CNCCC1Nc1cc(-c2c(F)cccc2F)nn2c(Cl)cnc12 (racemic) [Example #15, 3-chloro-6-(2,6-difluorophenyl)-N-(3-methylpiperidin-4-yl)imidazo[1,2-b]pyridazin-8-amine] | < 200 |
| CC1CN(C(=O)OC(C)(C)C)CCC1Nc1cc(-c2c(F)cccc2F)nn2c(Cl)cnc12 (racemic) [Example #16, tert-butyl-4-((3-chloro-6-(2,6-difluorophenyl)imidazo[1,2-b]pyridazin-8-yl)amino)-3-methylpiperidine-1-carboxylate] | < 200 |
| CN1CCN([C@H]2CC[C@H](Nc3cc(-c4c(F)cccc4F)nn4c(Cl)cnc34)CC2)CC1 [Example #1, 3-chloro-6-(2,6-difluorophenyl)-N-((1r,4r)-4-(4-methylpiperazin-1-yl)cyclohexyl)imidazo[1,2-b]pyridazin-8-amine] | < 200 |
| NC1CCC(Nc2c(Cl)c(-c3c(F)cccc3F)nn3c(Cl)cnc23)CC1 (stereo not shown) [Example #8, (1r,4r)-N1-(3,7-dichloro-6-(2,6-difluorophenyl)imidazo[1,2-b]pyridazin-8-yl)cyclohexane-1,4-diamine] | < 200 |
| N[C@H]1CC[C@H](Nc2cc(-c3c(F)cccc3F)nn3c(Cl)cnc23)CC1 [Example #9, (1r,4r)-N1-(3-chloro-6-(2,6-difluorophenyl)imidazo[1,2-b]pyridazin-8-yl)cyclohexane-1,4-diamine] | < 200 |
| CN(C)[C@H]1CC[C@H](Nc2cc(-c3c(F)cccc3F)nn3c(Cl)cnc23)CC1 [Example #12, (1r,4r)-N1-(3-chloro-6-(2,6-difluorophenyl)imidazo[1,2-b]pyridazin-8-yl)-N4,N4-dimethylcyclohexane-1,4-diamine] | < 200 |
| CS(=O)(=O)N1CCC(Nc2cc(-c3c(F)cccc3F)nn3c(Cl)cnc23)CC1 [Example #17, 3-chloro-6-(2,6-difluorophenyl)-N-(1-(methylsulfonyl)piperidin-4-yl)imidazo[1,2-b]pyridazin-8-amine] | < 20 |

Results, then the compound that gave them:

| IC50 [nM] | Structure (SMILES) |
| --- | --- |
| < 20 | CN1CCC(Nc2cc(-c3c(F)cccc3F)nn3c(Cl)cnc23)C1 (racemic) [Example #18, 3-chloro-6-(2,6-difluorophenyl)-N-(1-methylpyrrolidin-3-yl)imidazo[1,2-b]pyridazin-8-amine] |
| < 20 | Cc1cc(C)c(CNc2cc(-c3c(F)cccc3F)nn3c(Cl)cnc23)cn1 [Example #3, 3-chloro-6-(2,6-difluorophenyl)-N-((4,6-dimethylpyridin-3-yl)methyl)imidazo[1,2-b]pyridazin-8-amine] |
| < 20 | Fc1cccc(F)c1-c1cc(NCc2cccnc2)c2ncc(Cl)n2n1 [Example #4, 3-chloro-6-(2,6-difluorophenyl)-N-(pyridin-3-ylmethyl)imidazo[1,2-b]pyridazin-8-amine] |
| < 20 | CN1CCC(Nc2cc(-c3c(F)cccc3F)nn3c(Cl)cnc23)CC1 [Example #10, 3-chloro-6-(2,6-difluorophenyl)-N-(1-methylpiperidin-4-yl)imidazo[1,2-b]pyridazin-8-amine] |
| < 20 | Fc1cccc(F)c1-c1cc(N[C@H]2CC[C@H](N3CCOCC3)CC2)c2ncc(Cl)n2n1 [Example #11, 3-chloro-6-(2,6-difluorophenyl)-N-((1r,4r)-4-morpholinocyclohexyl)imidazo[1,2-b]pyridazin-8-amine] |

Source: patent US20260335313A1, “NOVEL CDK9 INHIBITORS” (Origenis GmbH, priority 2022, published 2026)
